# Measured values published in patent US20220370451A1, “INHIBITORS OF HUMAN IMMUNODEFICIENCY VIRUS REPLICATION” (VIIV HEALTHCARE UK ( No. 5) LIMITED, priority 2019, published 2022).
# Tests used:
# [1] = Compound cytotoxicity, XTT-based colorimetric assay; assay type: cell-based; details: human; uninfected MT2 cells, day 4, XTT
# Experimental: Compound cytotoxicity and the corresponding CC50 values were determined using the same protocol as described in the antiviral assay except that uninfected cells were used. Cytotoxicity was assessed on day 4 in uninfected MT2 cells by using a XTT (2,3-bis[2-Methoxy-4-nitro-5-sulfophenyl]-2H-tetrazolium-5-carboxyanilide inner salt)-based colorimetric assay (Sigma-Aldrich, St Louis, Mo.).
# recombinant NL4-3 virus = test: HIV cell culture assay (luciferase reporter antiviral activity); assay type: cell-based; details: Human immunodeficiency virus 1, NL43, MT2
# Experimental: HIV cell culture assay—MT=2 cells, 293T cells and the proviral DNA clone of NL4-3 virus were obtained from the NIH AIDS Research and Reference Reagent Program. MT=2 cells were propagated in RPMI 1640 media supplemented with 10% heat inactivated fetal bovine serum (FBS), […] penicillin G and up to 100 units/mL streptomycin. The 293T cells were propagated in DMEM media supplemented with 10% heat inactivated FBS, […] penicillin G and […] streptomycin. A recombinant NL4-3 proviral clone, in which a section of the nef gene was replaced with the Renilla luciferase gene, was used to make the reference virus used in these studies. The recombinant virus was prepared through transfection of the recombinant NL4-3 proviral clone into 293T cells using Transit-293 Transfection Reagent from Mirus Bio LLC (Madison, Wis.). Supernatent was harvested after 2-3 days and the amount of virus present was titered in MT=2 cells using luciferase enzyme activity as a marker by measuring luciferase enzyme activity. Luciferase was quantitated using the EnduRen Live Cell Substrate from Promega (Madison, Wis.). Antiviral activities of compounds toward the recombinant virus were quantified by measuring luciferase activity in MT=2 cells infected for 4-5 days with the recombinant virus in the presence of serial dilutions of the compound.
# The 50% effective concentration (EC50) was calculated by using the exponential form of the median effect equation where (Fa)=1/[1+(ED50/drug conc.)m] (Johnson V A, Byington RT. Infectivity Assay. In Techniques in HIV Research. ed. Aldovini A, Walker B D. 71-76. New York: Stockton Press.1990). The 50% inhibitory concentration (EC50) was calculated by using the exponential form of the median effect equation where percent inhibition=1/[1+(EC50/drug concentration)m], where m is a parameter that reflects the slope of the concentration-response curve.
SMILES,CC50 at 4 days [1] [nM],EC50 (recombinant NL4-3 virus) [nM]
"Cc1nccnc1-c1ccc2c(=O)n(-c3ccc(Cl)c4c(NS(C)(=O)=O)nn(C)c34)c([C@H](Cc3cc(F)cc(F)c3)NC(=O)Cn3nc(C(F)(F)F)cc3C(F)(F)F)nc2c1 (atropisomer, axis not shown; (P)) [Example 1, (S)-2-(3,5-bis(trifluoromethyl)-1H-pyrazol-1-yl)-N-(1-((3P)-3-(4-chloro-1-methyl-3-(methylsulfonamido)-1H-indazol-7-yl)-7-(3-methylpyrazin-2-yl)-4-oxo-3,4-dihydroquinazolin-2-yl)-2-(3,5-difluorophenyl)ethyl)acetamide]",> 500,1.9
"Cc1nccnc1-c1ccc2c(=O)n(-c3ccc(Cl)c4c(NS(C)(=O)=O)nn(C)c34)c([C@H](Cc3cc(F)cc(F)c3)NC(=O)Cn3nc(C4CC4)c4ccccc43)nc2c1 (atropisomer, axis not shown; (P)) [Example 2, (S)-N-(1-((3P)-3-(4-chloro-1-methyl-3-(methylsulfonamido)-1H-indazol-7-yl)-7-(3-methylpyrazin-2-yl)-4-oxo-3,4-dihydroquinazolin-2-yl)-2-(3,5-difluorophenyl)ethyl)-2-(3-cyclopropyl-1H-indazol-1-yl)acetamide]",> 500,0.21
"Cc1cc(C)nc(-c2ccc3c(=O)n(-c4ccc(Cl)c5c(NS(C)(=O)=O)nn(C)c45)c([C@H](Cc4cc(F)cc(F)c4)NC(=O)Cn4nc(C(F)(F)F)cc4C(F)(F)F)nc3c2)n1 (atropisomer, axis not shown; (P)) [Example 3, (S)-2-(3,5-bis(trifluoromethyl)-1H-pyrazol-1-yl)-N-(1-((3P)-3-(4-chloro-1-methyl-3-(methylsulfonamido)-1H-indazol-7-yl)-7-(4,6-dimethylpyrimidin-2-yl)-4-oxo-3,4-dihydroquinazolin-2-yl)-2-(3,5-difluorophenyl)ethyl)acetamide]",> 500,3.6
"Cc1cc(C)nc(-c2ccc3c(=O)n(-c4ccc(Cl)c5c(NS(C)(=O)=O)nn(C)c45)c([C@H](Cc4cc(F)cc(F)c4)NC(=O)Cn4nc(C5CC5)c5ccccc54)nc3c2)n1 (atropisomer, axis not shown; (P)) [Example 4, (S)-N-(1-((3P)-3-(4-chloro-1-methyl-3-(methylsulfonamido)-1H-indazol-7-yl)-7-(4,6-dimethylpyrimidin-2-yl)-4-oxo-3,4-dihydroquinazolin-2-yl)-2-(3,5-difluorophenyl)ethyl)-2-(3-cyclopropyl-1H-indazol-1-yl)acetamide]",> 500,0.91
"Cc1nccnc1-c1ccc2c(=O)n(-c3ccc(Cl)c4c(NS(C)(=O)=O)nn(C)c34)c([C@H](Cc3cc(F)cc(F)c3)NC(=O)Cn3ccc(C(C)(C)C)n3)nc2c1 (atropisomer, axis not shown; (P)) [Example 5, (S)-2-(3-(tert-butyl)-1H-pyrazol-1-yl)-N-(1-((3P)-3-(4-chloro-1-methyl-3-(methylsulfonamido)-1H-indazol-7-yl)-7-(3-methylpyrazin-2-yl)-4-oxo-3,4-dihydroquinazolin-2-yl)-2-(3,5-difluorophenyl)ethyl)acetamide]",> 500,0.65
"Cc1nccnc1-c1ccc2c(=O)n(-c3ccc(Cl)c4c(NS(C)(=O)=O)nn(C)c34)c([C@H](Cc3cc(F)cc(F)c3)NC(=O)Cn3nc(C(F)F)c4ccccc43)nc2c1 (atropisomer, axis not shown; (P)) [Example 7, (S)-N-(1-((3P)-3-(4-chloro-1-methyl-3-(methylsulfonamido)-1H-indazol-7-yl)-7-(3-methylpyrazin-2-yl)-4-oxo-3,4-dihydroquinazolin-2-yl)-2-(3,5-difluorophenyl)ethyl)-2-(3-(difluoromethyl)-1H-indazol-1-yl)acetamide]",> 500,0.38
"Cc1nccnc1-c1ccc2c(=O)n(-c3ccc(Cl)c4c(NS(C)(=O)=O)nn(C)c34)c([C@H](Cc3cc(F)cc(F)c3)NC(=O)Cn3nc(C4CC4)cc3C)nc2c1 (atropisomer, axis not shown; (P)) [Example 10, (S)-N-(1-((3P)-3-(4-chloro-1-methyl-3-(methylsulfonamido)-1H-indazol-7-yl)-7-(3-methylpyrazin-2-yl)-4-oxo-3,4-dihydroquinazolin-2-yl)-2-(3,5-difluorophenyl)ethyl)-2-(3-cyclopropyl-5-methyl-1H-pyrazol-1-yl)acetamide]",> 500,0.21
"Cc1nccnc1-c1ccc2c(=O)n(-c3ccc(Cl)c4c(NS(C)(=O)=O)nn(C)c34)c([C@H](Cc3cc(F)cc(F)c3)NC(=O)Cn3ccc(C4CCC4)n3)nc2c1 (atropisomer, axis not shown; (P)) [Example 11, (S)-N-(1-((3P)-3-(4-chloro-1-methyl-3-(methylsulfonamido)-1H-indazol-7-yl)-7-(3-methylpyrazin-2-yl)-4-oxo-3,4-dihydroquinazolin-2-yl)-2-(3,5-difluorophenyl)ethyl)-2-(3-cyclobutyl-1H-pyrazol-1-yl)acetamide]",> 500,0.39
"Cc1nccnc1-c1ccc2c(=O)n(-c3ccc(Cl)c4c(NS(C)(=O)=O)nn(C)c34)c([C@H](Cc3cc(F)cc(F)c3)NC(=O)Cn3nc(C(F)(F)F)cc3C)nc2c1 (atropisomer, axis not shown; (P)) [Example 12, (S)-N-(1-((3P)-3-(4-chloro-1-methyl-3-(methylsulfonamido)-1H-indazol-7-yl)-7-(3-methylpyrazin-2-yl)-4-oxo-3,4-dihydroquinazolin-2-yl)-2-(3,5-difluorophenyl)ethyl)-2-(5-methyl-3-(trifluoromethyl)-1H-pyrazol-1-yl)acetamide]",> 500,0.49
"O=C(Cn1nc(C2CC2)c2ccccc21)N[C@@H](Cc1cc(F)cc(F)c1)c1nc2nc(-c3ccccc3F)ccc2c(=O)n1-c1ccc(Cl)c2c(NS(=O)(=O)C3CC3)nn(CC(F)F)c12 (atropisomer, axis not shown; (P)) [Example 13, (S)-N-(1-((3P)-3-(4-chloro-3-(cyclopropanesulfonamido)-1-(2,2-difluoroethyl)-1H-indazol-7-yl)-7-(2-fluorophenyl)-4-oxo-3,4-dihydropyrido[2,3-d]pyrimidin-2-yl)-2-(3,5-difluorophenyl)ethyl)-2-(3-cyclopropyl-1H-indazol-1-yl)acetamide]",> 500,0.47
"Cn1nc(NS(C)(=O)=O)c2c(Cl)ccc(-n3c([C@H](Cc4cc(F)cc(F)c4)NC(=O)Cn4ccc(C(C)(C)C)n4)nc4nc(-c5ccccc5F)ccc4c3=O)c21 (atropisomer, axis not shown; (P)) [Example 14, (S)-2-(3-(tert-butyl)-1H-pyrazol-1-yl)-N-(1-((3P)-3-(4-chloro-1-methyl-3-(methylsulfonamido)-1H-indazol-7-yl)-7-(2-fluorophenyl)-4-oxo-3,4-dihydropyrido[2,3-d]pyrimidin-2-yl)-2-(3,5-difluorophenyl)ethyl)acetamide]",> 500,0.53
"Cn1nc(NS(C)(=O)=O)c2c(Cl)ccc(-n3c([C@H](Cc4cc(F)cc(F)c4)NC(=O)Cn4nc(C5CC5)c5ccccc54)nc4nc(-c5ccccc5F)ccc4c3=O)c21 (atropisomer, axis not shown; (P)) [Example 15, (S)-N-(1-((3P)-3-(4-chloro-1-methyl-3-(methylsulfonamido)-1H-indazol-7-yl)-7-(2-fluorophenyl)-4-oxo-3,4-dihydropyrido[2,3-d]pyrimidin-2-yl)-2-(3,5-difluorophenyl)ethyl)-2-(3-cyclopropyl-1H-indazol-1-yl)acetamide]",> 500,0.17
"CS(=O)(=O)Nc1nn(CC(F)F)c2c(-n3c([C@H](Cc4cc(F)cc(F)c4)NC(=O)Cn4nc(C(F)F)cc4C4CC4)nc4nc(-c5ccccc5F)ccc4c3=O)ccc(Cl)c12 (atropisomer, axis not shown; (P)) [Example 16]",> 500,0.37
"CS(=O)(=O)Nc1nn(CC(F)F)c2c(-n3c([C@H](Cc4cc(F)cc(F)c4)NC(=O)Cn4nc(C5CC5)cc4C(F)F)nc4nc(-c5ccccc5F)ccc4c3=O)ccc(Cl)c12 (atropisomer, axis not shown; (P)) [Example 17, (S)-N-(1-((3P)-3-(4-chloro-1-(2,2-difluoroethyl)-3-(methylsulfonamido)-1H-indazol-7-yl)-7-(2-fluorophenyl)-4-oxo-3,4-dihydropyrido[2,3-d]pyrimidin-2-yl)-2-(3,5-difluorophenyl)ethyl)-2-(3-cyclopropyl-5-(difluoromethyl)-1H-pyrazol-1-yl)acetamide]",> 500,0.52
